The results in this text go back to PMC10458458, “Characterization of Anticancer Effects of the Analogs of DJ4, a Novel Selective Inhibitor of ROCK and MRCK Kinases” (Pharmaceuticals, 2023).

For one data set, the system named is MDA-MB-231. Nature of the data set: MTT cell growth assay, 48 h. The format is cell-based, human. The following applies: for IC50: Homo sapiens, MDA-MB-231, 48 h, 2000 cells/well, ±SE, read-out: IC50 from MTT assays. On the procedure: (§1) However, as the concentration increased from 2.5 µM onwards, the effect was reversed. Similarly, DJ-Morpholine decreased the cell growth by ~30% at 0.6215 µM, while the effect remained saturated as the concentration increased. This trend was also observed in A549 lung cancer and A375M melanoma cells.
(§2) Figure 7 DJ4 analogs reduce cell growth in melanoma, breast, and lung cancer cells. MTT assay was performed to evaluate the effect of DJ4 analogs on cell growth after 48 h of treatment. IC50 values were calculated with nonlinear least squares regression curve fit by GraphPad prism. […] The error bars indicate SD from triplicates of the experiment.
(§3) The cytotoxic effect of DJ4 was studied in H1299, H226, A549, H522, H23, and H460 non-small cell lung cancer cells. The cells were seeded into 96-well plates with confluence ([…]). The cells were further treated with DMSO or DJ4 for 72 h. To study the effects of analogs, A549, A375M, and MDA-MB-231 cells were plated with low density (2000 cells/well) in a 96-well plate and grown overnight at 37 °C (with 5% CO2). Cells were treated with the analogs at the concentration of 0–10 µM for 48 h. At the end of the treatment period, cells were incubated with a tetrazolium dye MTT (3-(4,5-dimethylthiazol-2-yl)-2,5-diphenyltetrazolium bromide) reagent (Sigma) at 37 °C for 3 h to develop formazan crystals. The media was siphoned off and crystals were dissolved in DMSO and mixed gently on rocker for 5 min. Absorbance was read at 570 nm and 630 nm (background) wavelength. IC50 values were calculated from non-linear regression curve fit by using GraphPad Prism 5.0 software.

The test system of the next data set is A549. Nature of the data set: MTT cell growth assay, 48 h. The data set is classed as cell-based. The following applies: Homo sapiens; A549, 48 h, 2000 cells/well; ±SE; read-out: IC50 from MTT assays. On the procedure: as §1, §2, §3
A general note: Tetrazolium assays rely on reduction of a dye to a coloured formazan, in cell work by metabolically active cells.

The test system of another data set is A375M. Nature of the data set: MTT cell growth assay, 48 h. The following applies: Homo sapiens, 2000 cells/well, ±SE, read-out: IC50 from MTT assays. The data set is classed as cell-based. On the procedure:
as §1, §2, §3

Data set [1] is described as follows: Solubility in 100% DMSO (observation). The format is physicochemical.
A further data set addresses ROCK1 (Homo sapiens, UniProt Q13464). In words: Cell-free biochemical kinase activity assay (pMYPT1 immunoblot). Also noted: purchased Invitrogen. The following applies: for inhibition at 1 µM: cell-free screen of 27 analogs, read-out: inhibition of MYPT1 phosphorylation. On the procedure: Cell-free biochemical kinase inhibitory activity of these compounds was evaluated at 1 µM concentration using the previously described ROCK1 kinase activity assay. Among the 27 analogs, we identified four analogs (DJ110, DJ-Allyl, DJE4, and DJ-Morpholine) with >50% inhibition of MYPT1 phosphorylation (Supplementary Figure S1). These four compounds were selected for further evaluation at 1 µM and 0.1 µM for their in vitro inhibitory activity against ROCK1, ROCK2, MRCKα, and MRCKβ kinases.
Cell-free biochemical kinase activity was assayed using published procedures. Briefly, recombinant ROCK1 (9.48 nM) or ROCK2 (8.26 nM; Invitrogen, Waltham, MA, USA) was incubated in the presence of 0.1 and 1 µM concentrations of DJ4 analogs or DMSO in ROCK-assay buffer at room temperature (RT) for 10 min. MRCKα and MRCKβ (2 ng/µL; Invitrogen) assays were performed in the assay buffer recommended by the manufacturer. Recombinant MYPT1 (20 ng/µL; Millipore) and ATP (5 µM) were added to initiate the reaction. The reaction was incubated at 30 °C for 20 min. Western blot analysis of these samples for phosphorylation of MYPT1 was performed as per the method mentioned in our earlier publication. Briefly, an equal amount of sample was loaded on Bis-Tris gel (Novex, Life Technologies, Carlsbad, CA, USA), proteins were electrophoresed and transferred to PVDF membranes. The blots were probed with anti-pMYPT1 (Thr696) or anti-MYPT1 (Millipore) antibodies.
Figure S1. Screening of analogs in the in vitro kinase activity assay to identify […]
Kinase inhibitory activity of the 27 compounds was evaluated by in vitro cell-free biochemical kinase activity assay. The compounds (1 µM) were incubated with recombinant ROCK1 (9.48nM), recombinant MYPT1 (a kinase substrate, 84 nM) and ATP (25 µM). Phosphorylation status of the substrate (pMYPT1) was analyzed to study the […]
A general note: A western blot detects proteins with antibodies after separation by electrophoresis.

The test system of data set [2] is MDA-MB-231 breast cancer cells. In words: Cell migration (scratch/wound healing) assay. The data set is classed as cell-based, human. The following applies: MDA-MB-231, 2.5 µM for 24 h, then 9 h migration in compound-free medium; vehicle = 100%. On the procedure:
Lastly, we examined the effects of these four analogs on migration of MDA-MB-231 breast cancer cells. Scratch assays were performed on cells treated with the various analogs for 24 h and then allowed to migrate into the scratched area for 9 h in compound-free media. […] Due to limited solubility, DJ-Morpholine was not tested for its effect on cell migration.
Figure 9 DJ4 analogs inhibit migration of MDA-MB-231 breast cancer cells. (A) MDA-MB-231 cells were treated with 2.5 µM concentration of DJ4 analogs for 24 h. At the end of the treatment period, uniform scratches were made across the monolayer of cells. The cells were allowed to migrate in the scratched area for 9 h in a compound-free medium. The cells were stained with calcein (green) and propidium iodide (red) to study live and dead cell populations in the scratched area. (B) The distance migrated by the treated cells was normalized to vehicle control treated cells. Statistical significance was determined by one-way ANOVA followed by Dunnett’s multiple comparison test. The error bars indicate SEM from triplicates of the experiment. *** p < 0.001. TEXT PRINTED IN THE PICTURE: (B) DMSO: % Migration: 100 | (B) DJ4: % Migration: 32 *** | (B) DJ110: % Migration: 28 *** | (B) DJ Allyl: % Migration: 36 *** | (B) DJE4: % Migration: 48 ***
Migration (scratch/wound healing) assays were performed using published procedures. Briefly, MDA-MB-231 cells were grown to confluence, and cells were treated with DMSO (vehicle control), DJ4, and its active analogs at 2.5 µM concentration for 24 h. At the end of the treatment period, uniform scratches were made in the monolayer of cells. The cells were allowed to migrate for 9 h in a compound-free medium. Light microscopic images were obtained at 0 h and 9 h after creating scratches. The width of the scratches was measured by using AxioVision software (AxioVision Inc., Carl Zeiss, Jena, Germany). The percentage of migration in each treatment at 9 h was calculated in comparison to 0 h readings. Furthermore, the percent migration in treatment groups was normalized to vehicle control (considering 100% migration). The experiment was performed in triplicate. Viability of the cells at the migration area was studied to confirm that the anti-migration effect of the analogs at the tested concentration and duration is independent of cell death. At the end of the migration period, cells were stained with calcein (Invitrogen, Waltham, MA, USA) and propidium iodide (Invitrogen, Waltham, MA, USA) dyes, as per the manufacturer’s protocol, which stain the live and dead cells, respectively.

Chain of ROCK1 (Q13464 whole entry): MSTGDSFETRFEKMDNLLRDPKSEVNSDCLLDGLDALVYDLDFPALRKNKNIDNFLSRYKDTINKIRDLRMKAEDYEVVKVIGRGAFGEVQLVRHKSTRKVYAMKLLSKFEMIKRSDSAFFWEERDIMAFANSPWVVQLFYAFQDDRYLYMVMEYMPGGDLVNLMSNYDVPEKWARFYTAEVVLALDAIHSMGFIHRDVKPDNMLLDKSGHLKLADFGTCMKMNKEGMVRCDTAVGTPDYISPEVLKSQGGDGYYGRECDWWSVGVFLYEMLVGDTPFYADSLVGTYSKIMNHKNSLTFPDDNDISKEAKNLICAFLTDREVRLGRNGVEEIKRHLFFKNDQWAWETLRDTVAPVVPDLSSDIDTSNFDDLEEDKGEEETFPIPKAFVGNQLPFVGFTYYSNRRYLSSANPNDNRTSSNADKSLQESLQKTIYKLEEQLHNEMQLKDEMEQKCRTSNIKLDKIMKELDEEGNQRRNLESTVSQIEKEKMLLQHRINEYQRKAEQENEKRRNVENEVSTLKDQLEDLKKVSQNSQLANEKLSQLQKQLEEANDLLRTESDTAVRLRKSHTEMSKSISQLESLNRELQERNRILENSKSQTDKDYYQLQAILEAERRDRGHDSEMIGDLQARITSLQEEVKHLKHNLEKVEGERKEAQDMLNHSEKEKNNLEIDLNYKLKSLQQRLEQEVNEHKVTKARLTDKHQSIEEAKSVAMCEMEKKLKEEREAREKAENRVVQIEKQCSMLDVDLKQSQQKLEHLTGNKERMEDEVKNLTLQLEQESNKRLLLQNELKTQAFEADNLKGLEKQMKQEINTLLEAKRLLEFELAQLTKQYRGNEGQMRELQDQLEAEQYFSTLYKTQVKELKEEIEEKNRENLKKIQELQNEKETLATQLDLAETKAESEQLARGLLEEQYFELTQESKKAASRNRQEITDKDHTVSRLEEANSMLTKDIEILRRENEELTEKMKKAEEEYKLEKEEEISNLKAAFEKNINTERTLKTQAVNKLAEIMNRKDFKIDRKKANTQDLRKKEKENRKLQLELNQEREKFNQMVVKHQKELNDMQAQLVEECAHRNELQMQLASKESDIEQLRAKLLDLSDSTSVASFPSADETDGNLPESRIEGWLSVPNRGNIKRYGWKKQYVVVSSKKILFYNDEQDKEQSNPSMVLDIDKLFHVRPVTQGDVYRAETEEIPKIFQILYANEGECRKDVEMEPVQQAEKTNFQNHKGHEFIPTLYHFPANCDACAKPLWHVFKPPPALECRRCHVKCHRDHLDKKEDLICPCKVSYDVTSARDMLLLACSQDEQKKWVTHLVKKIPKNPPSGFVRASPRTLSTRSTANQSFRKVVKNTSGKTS

A word on the IC50: it is the midpoint of a concentration-inhibition curve. Consider `O=C1N/C(=N\CCc2ccccc2)S/C1=C/c1c[nH]c2ncccc12` [DJ4], for which the figures for the IC50 in the data set on MDA-MB-231, in the data set on A549 and in the data set on A375M were 2.3 ± 0.23 µM, 5.4 ± 1.19 µM and 1.1 ± 0.15 µM, respectively. Also, the “solubility in 100% DMSO” value in data set [1] is “much better solubility”. The “inhibition of kinase activity (qualitative immunoblot)” value (shortened to “inhibition of kinase activity”) is listed as “ineffective” against ROCK1 (ROCK1, 0.1 µM) and “significantly inhibit” against ROCK1 (ROCK1, 1 µM). Further, the “% Migration compared to control” value in data set [2] is on record as 32%.

As usually defined, the inhibition is the relative decrease from the control value, in per cent. In the case of `O=C1N/C(=N\Cc2ccccc2)S/C1=C/c1c[nH]c2ncccc12` [DJ110], the 50% inhibitory concentration (IC50) in the data set with MDA-MB-231 worked out at 0.65 ± 0.07 µM; with A549, 0.88 ± 0.16 µM; with A375M it was 0.49 ± 0.03 µM. Also, the “solubility in 100% DMSO” value in data set [1] is listed as “poor solubility”. Further, the “inhibition of kinase activity” value against ROCK1 (ROCK1, 0.1 µM) was “significantly inhibited”; against ROCK1 (ROCK1, 1 µM) it was “significantly inhibit”. The inhibition at 1 µM at ROCK1 (ROCK1, 1 µM) was over 50%. For the same molecule, the “% Migration compared to control” value in data set [2] worked out at 28%.

Turning to `C=CC/N=C1\NC(=O)/C(=C\c2c[nH]c3ncccc23)S1` [DJ-Allyl], the IC50 is 4.1 ± 1.23 µM in the data set with MDA-MB-231, 5 ± 2.2 µM in the data set with A549 and 4.7 ± 0.52 µM with A375M. In data set [1], the “solubility in 100% DMSO” value is reported as “much better solubility”. Moreover, the “inhibition of kinase activity” value on ROCK1 (ROCK1, 1 µM) is given as “almost completely inhibited”. The inhibition at 1 µM on ROCK1 (ROCK1, 1 µM) was over 50%. Also, in data set [2], the “% Migration compared to control” value was 36%.

As to `O=C1N/C(=N\CCN2CCOCC2)S/C1=C/c1c[nH]c2ncccc12` [DJ-Morpholine], the IC50 with MDA-MB-231, in the data set with A549 and in the data set with A375M was over 10 µM in each case. The “decrease in cell growth” value with MDA-MB-231 (MDA-MB-231, 0.6215 µM, 48 h, effect saturated at higher concentrations) is ~ 30%. The “solubility in 100% DMSO” value in data set [1] is given as “poor solubility”. At ROCK1 (ROCK1, 1 µM), the “inhibition of kinase activity” value is given as “almost completely inhibited”. For the same molecule, the inhibition at 1 µM at ROCK1 (ROCK1, 1 µM) is over 50%.

Consider `CC/N=C1\NC(=O)/C(=C\c2c[nH]c3ncccc23)S1` [DJE4], for which the IC50 in the data set with MDA-MB-231 came out at 5.9 ± 1.63 µM; in the data set with A549, 6.1 ± 1.69 µM; with A375M, 5.1 ± 0.32 µM. Also, the “solubility in 100% DMSO” value in data set [1] is on record as “much better solubility”. At ROCK1 (ROCK1, 1 µM), the “inhibition of kinase activity” value is given as “almost completely inhibited”. For the same molecule, the inhibition at 1 µM at ROCK1 (ROCK1, 1 µM) is over 50%. In addition, in data set [2], the “% Migration compared to control” value is given as 48%.
